Results from ChEMBL document CHEMBL1122455, “(Mercaptopropanoyl)indoline-2-carboxylic acids and related compounds as potent angiotensin converting enzyme inhibitors and antihypertensive agents” (J Med Chem, 1983).

Experiments:
[1] = biological target: T1, Angiotensin-converting enzyme (Rattus norvegicus, UniProt P47820); experiment: In vitro inhibitory activity against Angiotensin I converting enzyme
T1 sequence (P47820 whole entry): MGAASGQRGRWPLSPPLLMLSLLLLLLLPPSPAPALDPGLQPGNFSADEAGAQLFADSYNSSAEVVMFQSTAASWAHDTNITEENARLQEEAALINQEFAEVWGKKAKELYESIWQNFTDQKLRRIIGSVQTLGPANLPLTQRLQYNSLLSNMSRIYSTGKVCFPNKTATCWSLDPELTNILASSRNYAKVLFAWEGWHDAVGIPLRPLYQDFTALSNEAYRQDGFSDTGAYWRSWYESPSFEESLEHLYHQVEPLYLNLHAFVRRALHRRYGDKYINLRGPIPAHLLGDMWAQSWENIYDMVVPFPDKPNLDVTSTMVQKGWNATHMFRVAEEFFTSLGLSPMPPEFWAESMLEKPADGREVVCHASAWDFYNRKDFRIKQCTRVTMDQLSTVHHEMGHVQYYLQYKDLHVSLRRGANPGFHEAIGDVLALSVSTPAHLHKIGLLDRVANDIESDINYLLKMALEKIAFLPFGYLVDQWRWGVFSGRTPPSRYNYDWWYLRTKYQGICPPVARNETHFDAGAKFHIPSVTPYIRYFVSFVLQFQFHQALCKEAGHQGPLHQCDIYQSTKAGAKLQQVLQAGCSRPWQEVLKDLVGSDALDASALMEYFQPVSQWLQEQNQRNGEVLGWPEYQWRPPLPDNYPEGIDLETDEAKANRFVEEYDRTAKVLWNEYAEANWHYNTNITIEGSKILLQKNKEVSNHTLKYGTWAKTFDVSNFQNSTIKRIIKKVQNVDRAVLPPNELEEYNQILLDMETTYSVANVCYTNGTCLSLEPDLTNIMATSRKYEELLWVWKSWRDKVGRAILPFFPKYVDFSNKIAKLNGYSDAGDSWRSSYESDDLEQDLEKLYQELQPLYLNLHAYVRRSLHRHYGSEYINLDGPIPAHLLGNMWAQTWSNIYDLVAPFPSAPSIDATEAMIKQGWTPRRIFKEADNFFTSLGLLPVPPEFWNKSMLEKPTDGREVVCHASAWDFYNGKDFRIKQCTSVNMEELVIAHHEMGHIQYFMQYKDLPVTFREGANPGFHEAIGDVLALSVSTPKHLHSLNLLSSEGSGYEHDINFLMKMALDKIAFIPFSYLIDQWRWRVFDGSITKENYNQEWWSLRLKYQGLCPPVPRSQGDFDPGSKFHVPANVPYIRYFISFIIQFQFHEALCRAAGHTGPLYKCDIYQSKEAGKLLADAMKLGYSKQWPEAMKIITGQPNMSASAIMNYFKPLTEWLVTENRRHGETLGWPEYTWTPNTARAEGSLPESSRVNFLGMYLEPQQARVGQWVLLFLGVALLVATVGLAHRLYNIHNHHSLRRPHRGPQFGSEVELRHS

Rattus norvegicus [2] = experiment: Dose required to inhibit 50% of the angiotensin I induced vasopressor response p.o.; type: functional; settings: po, read-out: ID50 (the source's name)
Rattus norvegicus [3] = experiment: Dose required to lower blood pressure of SHR by 25 mmHg at 4-h post dose p.o.; type: functional; settings: po

Row | Structure (SMILES) | IC50 [1] [µM] | ED50 (Rattus norvegicus [2]) [mg/kg] | ED25 (Rattus norvegicus [3]) [mg/kg]
1 | C=C(C)C(=O)N1c2ccccc2C[C@@H]1C(=O)O | > 1000 | – | –
2 | C=CC(=O)N1c2ccccc2CC1C(=O)O (stereo not drawn) | > 1000 | – | –
3 | CC(=O)SCC(C)C(=O)N1c2ccccc2CC1C(=O)O (stereo in doubt; form 1) | 15 | – | –
4 | O=C(SCCC(=O)N1c2ccccc2CC1C(=O)O)c1ccccc1 (stereo not drawn) | 0.059 | 1.95 | 12.5
5 | C1CCC(NC2CCCCC2)CC1.C[C@@H](CSC(=O)c1ccccc1)C(=O)N1c2ccccc2C[C@H]1C(=O)O | 0.54 | – | 39
6 | CCc1ccc2c(c1)CC(C(=O)O)N2C(=O)C(C)CSC(=O)c1ccccc1 (stereo not drawn) | 0.03 | – | > 100
7 | C[C@@H]1CSC(=O)[C@H]2Cc3ccccc3N2C1=O | 20 | – | –
8 | CC(CSC(=O)c1ccccc1)C(=O)N1c2ccccc2CC1C(=O)O (stereo in doubt; form 2) | 0.078 | – | –
9 | C[C@@H](CSC(=O)c1ccccc1)C(=O)N1c2ccccc2C[C@H]1C(=O)O (racemic) | 3.5 | – | –
10 | C[C@H](CSC[C@@H](C)C(=O)N1c2ccccc2C[C@H]1C(=O)O)C(=O)N1c2ccccc2C[C@H]1C(=O)O | 1.3 | – | 24
11 | C=C(C)C(=O)N1c2ccc(OC)cc2CC1C(=O)O (stereo not drawn) | > 1000 | – | –
12 | C[C@@H]1CSC(=O)[C@@H]2Cc3ccccc3N2C1=O | 0.014 | – | 2
13 | C[C@@H](CSC(=O)c1ccccc1)C(=O)N1c2ccccc2C[C@H]1C(=O)O | 0.38 | – | –
14 | C=C(C)C(=O)N1c2ccccc2CC1C(=O)O (stereo not drawn) | > 1000 | – | –
15 | CC(=O)SCC(C)C(=O)N1c2ccccc2CC1C(=O)O (stereo in doubt; form 2) | 0.011 | – | 13
16 | C=C(C)C(=O)N1c2ccccc2C[C@H]1C(=O)O | > 100 | – | –
17 | COc1ccc2c(c1)CC(C(=O)O)N2C(=O)C(C)CSC(=O)c1ccccc1 (stereo not drawn) [listing 1 of 2 here] | 0.097 | – | –
18 | C1CCC(NC2CCCCC2)CC1.COc1ccc2c(c1)C[C@@H](C(=O)O)N2C(=O)[C@H](C)CSC(=O)c1ccccc1 | 0.042 | – | 20
19 | C[C@@H](CSC(=O)c1ccccc1)C(=O)N1c2ccccc2C[C@@H]1C(=O)O [listing 1 of 2 here] | > 100 | – | –
20 | C[C@H](CSC(=O)c1ccccc1)C(=O)N1c2ccccc2C[C@H]1C(=O)O [listing 1 of 2 here] | 0.038 | 2 | 1.03
21 | CC(CSC(=O)c1ccccc1)C(=O)N1c2ccccc2CC1C(=O)O (stereo in doubt; form 1) | 0.41 | – | –
22 | C[C@H](CS)C(=O)N1CCC[C@H]1C(=O)O [CAPTOPRIL] | – | 0.57 | 17.8
23 | COc1ccc2c(c1)CC(C(=O)O)N2C(=O)C(C)CSC(=O)c1ccccc1 (stereo not drawn) [listing 2 of 2 here] | 0.094 | – | –
24 | C[C@@H](CSC(=O)c1ccccc1)C(=O)N1c2ccccc2C[C@@H]1C(=O)O [listing 2 of 2 here] | > 100 | – | –
25 | C[C@H](CSC(=O)c1ccccc1)C(=O)N1c2ccccc2C[C@H]1C(=O)O [listing 2 of 2 here] | 0.32 | – | –
26 | C[C@@H](CSC(=O)c1ccccc1)C(=O)N1c2ccccc2C[C@@H]1C(=O)O (racemic) | 1.2 | – | 100
